Assay results as given in the supplement of paper PMC10307832.

Experiments:
Assay in all cases: relative viability (nuclei count vs DMSO), 5 days (fraction); higher = more cells survive
[1] = compound: CC1=C(C(=O)N2C=CSC2=N1)CCN3CCC(=C(C4=CC=CC=C4)C5=CC=C(C=C5)F)CC3 + N=C(N)NC(=N)NCCc1ccccc1 [Phenformin] (partner 250 µM)
Method in brief: (§1)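 Lung cancer cell lines, seeded in 1536-well plates, were treated the following day by pin tool with a single drug or with five library-drug doses (not always all listed) in √10 steps on top of a fixed anchor-drug dose. Cells were fixed and nuclei stained in one step after 5 days, and nuclei were counted. Relative viability is the nuclei count for treated wells divided by that for vehicle wells, reported as medians of duplicate plates.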

[2] = compound: CC1=C(C(=O)N2C=CSC2=N1)CCN3CCC(=C(C4=CC=CC=C4)C5=CC=C(C=C5)F)CC3 + Cc1nc(NC(=O)N2CCC[C@H]2C(N)=O)sc1-c1ccnc(C(C)(C)C(F)(F)F)c1 [Alpelisib] (partner 2 µM)
Method in brief: as §1

[3] = compound: CC1=C(C(=O)N2C=CSC2=N1)CCN3CCC(=C(C4=CC=CC=C4)C5=CC=C(C=C5)F)CC3 + NC(=O)Nc1cc(-c2cccc(F)c2)sc1C(=O)N[C@H]1CCCNC1 [AZD7762] (partner 0.2 µM)
Method in brief: as §1

[4] = compound: CC1=C(C(=O)N2C=CSC2=N1)CCN3CCC(=C(C4=CC=CC=C4)C5=CC=C(C=C5)F)CC3 + CS(=O)(=O)N1CCN(Cc2cc3nc(-c4cccc5[nH]ncc45)nc(N4CCOCC4)c3s2)CC1 [Pictilisib] (partner 1 µM)
Method in brief: as §1

Cell Line	relative viability ([1]; first compound 0.08 µM)	relative viability ([1]; first compound 0.253 µM)	relative viability ([1]; first compound 0.8 µM)	relative viability ([1]; first compound 2.53 µM)	relative viability ([1]; first compound 8 µM)	relative viability ([2]; first compound 0.08 µM)	relative viability ([2]; first compound 0.253 µM)	relative viability ([2]; first compound 0.8 µM)	relative viability ([2]; first compound 2.53 µM)	relative viability ([2]; first compound 8 µM)	relative viability ([3]; first compound 0.08 µM)	relative viability ([3]; first compound 0.253 µM)	relative viability ([3]; first compound 0.8 µM)	relative viability ([3]; first compound 2.53 µM)	relative viability ([3]; first compound 8 µM)	relative viability ([4]; first compound 0.08 µM)	relative viability ([4]; first compound 0.253 µM)	relative viability ([4]; first compound 0.8 µM)	relative viability ([4]; first compound 2.53 µM)	relative viability ([4]; first compound 8 µM)
201T	0.504	0.463	0.433	0.477	0.386	1.02	1.04	1.08	1.07	0.852	0.718	0.513	0.579	0.621	0.586	0.647	0.779	0.632	0.712	0.808
A-427	0.291	0.287	0.283	0.301	0.266	1.15	1.11	1.05	1.1	1.08	0.675	0.678	0.67	0.633	0.674	0.801	0.86	0.676	0.83	0.737
ABC-1	0.267	0.223	0.212	0.248	0.197	0.989	0.935	1.08	1.09	0.605	0.751	0.746	0.791	0.766	0.677	0.817	0.973	0.827	0.684	0.483
BEN	0.255	0.281	0.247	0.316	0.21	0.826	1.09	1.09	0.974	0.69	0.732	0.677	0.638	0.638	0.651	0.521	0.602	0.562	0.516	0.505
CAL-12T	0.55	0.593	0.544	0.605	0.346	0.811	1.34	1.45	1.49	0.589	0.605	0.751	0.576	0.699	0.503	–	0.445	0.411	0.42	0.387
COR-L23	0.43	0.449	0.39	0.455	0.375	0.755	1.05	0.818	0.877	0.667	–	–	–	–	–	0.775	0.595	0.945	0.69	0.52
COR-L 105	0.484	0.467	0.402	0.499	0.387	0.984	1.09	1.16	1.1	0.963	–	–	–	–	–	0.349	0.392	0.376	0.436	0.403
Calu-6	–	–	–	–	–	1.02	1.06	0.91	0.997	0.807	–	–	–	–	–	0.937	0.847	0.915	1.2	0.54
ChaGo-K-1	0.561	0.462	0.53	0.539	0.431	–	–	–	–	–	0.763	0.919	0.925	0.928	0.694	0.976	0.593	0.476	0.937	0.604
EBC-1	–	–	–	–	–	0.812	0.861	0.789	0.97	0.643	–	–	–	–	–	0.343	0.37	0.29	0.355	0.366
EKVX	0.211	0.26	0.236	0.207	0.221	0.719	0.868	1.05	1.14	0.652	0.602	0.753	0.808	0.553	0.641	0.38	0.412	0.479	0.408	0.36
EMC-BAC-2	0.536	0.495	0.497	0.526	0.414	0.639	0.673	0.806	0.824	0.588	1.18	0.93	1.01	1.13	1.01	0.543	0.516	0.505	0.617	0.424
EPLC-272H	0.333	0.328	0.286	0.286	0.391	–	0.878	1.05	0.852	0.737	0.45	0.198	0.182	0.211	0.179	–	0.332	0.259	0.306	0.359
H3255	0.341	0.34	0.352	0.37	0.38	0.52	0.623	0.727	0.712	0.587	0.832	0.929	0.907	0.955	0.72	0.448	0.389	0.515	0.537	0.4
HARA	0.525	0.513	0.54	0.544	0.269	0.932	0.668	1.05	0.77	0.623	0.371	0.347	0.281	0.296	0.303	0.527	0.423	0.383	0.202	0.289
HCC-15	0.432	0.453	0.434	0.423	0.334	0.875	0.958	0.972	1.04	0.69	1.18	1.43	1.28	1.15	1.09	0.714	0.752	0.714	0.773	0.587
HCC-44	0.172	0.15	0.148	0.217	0.202	0.906	0.736	0.863	0.73	0.805	1.04	1.04	1.08	1.17	1.06	0.532	0.643	0.587	0.573	0.581
HCC-78	0.689	0.76	0.695	0.691	0.531	0.352	0.347	0.324	0.379	0.286	0.691	0.71	0.58	0.662	0.567	0.216	0.206	0.226	0.212	0.273
HCC-366	0.638	0.65	0.626	0.579	0.472	–	0.428	0.471	0.605	0.243	0.302	0.317	0.25	0.23	0.211	0.128	0.152	0.194	0.129	0.121
HCC-827	0.4	0.413	0.444	0.398	0.407	0.971	0.964	0.979	1.15	0.859	0.16	0.214	0.236	0.224	0.209	0.829	1.07	1.13	0.924	0.645

Cell Line	relative viability ([1]; first compound 0.08 µM)	relative viability ([1]; first compound 0.253 µM)	relative viability ([1]; first compound 0.8 µM)	relative viability ([1]; first compound 2.53 µM)	relative viability ([1]; first compound 8 µM)	relative viability ([2]; first compound 0.08 µM)	relative viability ([2]; first compound 0.253 µM)	relative viability ([2]; first compound 0.8 µM)	relative viability ([2]; first compound 2.53 µM)	relative viability ([2]; first compound 8 µM)	relative viability ([3]; first compound 0.08 µM)	relative viability ([3]; first compound 0.253 µM)	relative viability ([3]; first compound 0.8 µM)	relative viability ([3]; first compound 2.53 µM)	relative viability ([3]; first compound 8 µM)	relative viability ([4]; first compound 0.08 µM)	relative viability ([4]; first compound 0.253 µM)	relative viability ([4]; first compound 0.8 µM)	relative viability ([4]; first compound 2.53 µM)	relative viability ([4]; first compound 8 µM)
HOP-62	0.711	0.774	0.678	0.491	0.381	0.974	0.852	0.971	0.945	0.56	0.445	0.51	0.522	0.534	0.323	0.891	0.72	0.827	0.745	0.611
IA-LM	–	–	–	–	–	0.554	0.576	0.845	0.988	0.465	–	–	–	–	–	–	0.354	0.211	0.345	0.234
LC-2-ad	0.656	0.656	0.543	0.62	0.566	0.936	0.91	0.789	0.962	0.794	0.777	0.725	0.866	0.966	0.613	0.418	0.369	0.513	0.646	0.427
LCLC-97TM1	0.435	0.434	0.447	0.448	0.411	0.184	0.265	0.226	0.304	0.148	0.348	0.246	0.288	0.285	0.228	0.208	0.297	0.217	0.182	0.167
NCI-H520	0.784	0.643	0.836	0.539	0.468	0.906	0.594	0.777	1.01	0.794	–	–	–	–	–	0.315	0.334	0.348	0.33	0.292
NCI-H661	0.242	0.268	0.277	0.297	0.291	0.658	0.498	0.461	0.623	0.427	–	–	–	–	–	0.404	0.382	0.338	0.352	0.361
NCI-H1299	–	–	–	–	–	0.997	1.09	1.08	1.03	0.54	–	–	–	–	–	1	0.906	0.754	1.05	0.575
NCI-H1563	0.654	0.7	0.695	0.633	0.648	0.82	0.909	0.879	0.885	0.779	–	–	–	–	–	0.542	0.684	0.66	0.633	0.637
NCI-H1648	–	–	–	–	–	–	–	–	–	–	0.722	0.628	0.727	0.667	0.443	–	–	–	–	–
NCI-H1650	0.494	0.345	0.383	0.58	0.314	–	–	–	–	–	–	–	–	–	–	0.586	0.682	0.519	0.586	0.389
NCI-H1703	–	–	–	–	–	0.372	0.316	0.278	0.463	0.306	0.14	0.139	0.194	0.117	0.132	0.298	0.248	0.266	0.295	0.248
NCI-H2009	0.541	0.492	0.493	0.49	0.362	1.26	1.16	1.2	1.19	1.08	–	–	–	–	–	1.05	0.843	0.736	0.956	0.723
NCI-H2023	0.441	0.312	0.426	0.389	0.251	0.579	0.587	0.549	0.697	0.584	–	–	–	–	–	0.257	0.239	0.238	0.263	0.28
NCI-H2228	0.261	0.301	0.376	0.348	0.256	0.75	0.829	0.734	0.595	0.786	–	–	–	–	–	0.648	0.295	0.276	0.504	0.283
NCI-H2342	0.557	0.605	0.52	0.597	0.523	–	–	–	–	–	0.382	0.516	0.436	0.566	0.433	–	–	–	–	–
SK-LU-1	0.672	0.475	0.585	0.576	0.42	1.24	0.925	1.13	1.33	0.826	–	–	–	–	–	0.538	0.587	0.655	0.573	0.494
SK-MES-1	0.608	0.693	0.699	0.73	0.522	0.881	0.944	0.835	0.87	0.554	–	–	–	–	–	0.386	0.396	0.357	0.33	0.261
SW 1573	–	0.343	0.4	0.377	0.24	0.829	0.829	0.739	0.657	0.469	–	–	–	–	–	–	0.478	0.478	0.486	0.264
UMC-11	0.366	0.326	0.321	0.338	0.255	1.1	0.765	0.977	1.29	0.732	–	–	–	–	–	0.953	0.811	0.8	1.15	0.733
